Laboratory results taken from patent US7534769B2, “Compositions and methods for enhancing delivery of therapeutic agents to cells” (Canji, Inc., priority 1996, dated 2009).
“Also recorded” adds a separate entry of the source.

Tests used:
bladder tissue = assay: Cystitis evaluation of formulations in mice, bladder histopathology; details: 80 μL intravesical, 7-day interval; 7 mM Big CHAP, 0.05 mM TRITON X-100 or 22% ethanol
Experimental: The formulations were administered intravesically in a volume of 80 μL, and animals were observed over a 7-day interval. After sacrifice, bladders were paraffin-embedded, sectioned, and stained with hematoxylin and eosin for pathologic evaluation.

bladder epithelium [1] = assay: rAd-βgal gene transfer to bladder epithelium in detergent formulations, Xgal staining score and gross pathology; details: detergents at their critical micellization concentration
Experimental: rAd-βgal was formulated in different detergents at their critical micellization concentration to evaluate efficiency of gene transfer to the bladder epithelium. Female rats (about 200 g b/w, Harlan Sprague Dawley) were anesthetized with isoflurane and received a single intravesical administration of rAd-βgal (1×10^11 PN/ml) in different detergent formulations (see Table I). Before instillation, bladders were flushed with PBS and then emptied. rAd-βgal was then instilled in a volume of 0.5 ml. The instilled solution was retained in the bladder for 45 minutes. The bladders were then flushed with PBS, and the animals were permitted to recover from the procedure. 48 hours after administration, the rats were sacrificed, the bladders harvested, and fixed in formalin. After fixation, the bladders were opened longitudinally so that the urothelium was exposed to the chromogen (Xgal), that is converted to a blue color, if reporter gene (β-galactosidase) expression is present. The luminal epithelial surface of the whole bladder was photographed an blue staining scored: + (minimal staining), ++ (moderate staining), +++ intense staining covering the whole bladder epithelial surface.
Briefly, in anaesthetized female rats rAd-βgal (1×10^11 PN/ml) was administered into the bladder via an intravesical catheter. rAd-βgal was formulated in different concentrations of Big CHAP (CALBIOCHEM®). A volume of 0.5 ml was injected and remained instilled in the bladder for 45 minutes. The animals were sacrificed 48 hours later, the bladder fixed in 4% formalin/glutaraldehyde, opened longitudinally, and the β-galactosidase enzyme activity measured using Xgal substrate. The intensity of blue staining correlates with the βgal-transgene expression.
Effects of higher recombinant adenovirus concentrations were also tested. Briefly, in anaesthetized female rats different concentrations of rAd-βgal, formulated in 7 mM Big CHAP (CALBIOCHEM®) were administered into the bladder via an intravesical catheter. The animals were sacrificed 48 hours later, the bladder fixed in 4% formalin/glutaraldehyde, opened longitudinally, and Xgal stained.

bladder [2] = assay: Gene transfer activity of water-soluble Syn3 analogs in vivo, whole organ Xgal staining; parameters: species or system rat; details: summary, Concentration 1 mg/ml
Experimental: A concentration of 1 mg/ml was chosen for initial testing of both compounds.
The solution of A-TMA was prepared by dissoluting 10 mg of A-TMA into 10 ml Dulbecco's PBS. Glycerol was added to provide a final concentration of 10 mg/ml. All solutions were sterile filtered prior to use (0.2 μm Acrodisc syring filter). The virus (BGCG 70AAB) was diluted 1:10 into either this A-TMA solution, or into Dulbecco's PBS-glycerol prior to administration.
Ten mg of A-HCl was dissoluted into this buffer and sterile filtered prior to use (0.2 μm Acrodisc suring filter). The virus (BGCG 70AAB) was diluted 1:10 into this solution prior to administration. For comparison, the virus diluted into this buffer without A-HCl was also tested.
Female HSD rats were anesthetized using isofluorane. The rats were transuretherally catheterized into the bladder using PE50 tubing lubricated with K-Y jelly. A tie-off was installed on the external urethra to prevent back leakage. Urine, if any, was removed and the bladder was flushed with 0.5 ml PBS and emptied. rAd was diluted to the desired concentration (1:10) and instilled for 45 minutes. The dosing material was removed, noting the return volume. The bladder was flushed with 0.5 ml PBS and emptied. The tie-off and catheter were removed, and the animals were allowed to recover in cages.
After 48 hours, the animals were sacrificed and their bladders inflation fixed with 0.5 ml fixative for 1 hour. The bladders were then rinsed overnight and whole organ Xgal staining was conducted.

bladder urothelium = assay: Histological examination of Syn3 treated bladders (infiltrates); format: in vivo, rat; details: for inflammation / infiltration at lower concentration of Syn3: 0.25 mg/ml compared with 0.5 mg/ml, decreasing concentrations in Big CHAP or Tween 80
Experimental: (§1) Following removal of virus and flushing of the bladder, the animals were allowed to recover. After 48 hours the animals were sacrificed, their bladders fixed, and stained for β-gal expression. Following photographic recording, bladders were embedded in paraffin for sectioning and histological examination.
Bladders from animals treated with Syn3-rAd (β-Gal) were prepared for histological examination to determine the levels of viral infection, as well as the degree of viral penetration into the bladder urothelium.

[3] = Stability of Syn3 in solution; format: physicochemical
Experimental: However, if left at room temperature at this high concentration (100 mg/ml), it will solidify within 24 hours.

bladder [4] = assay: Gene transfer activity of Syn3 in Big CHAP or Tween-80, β-galactosidase expression in bladder; format: in vivo, rat; details: for gene transfer activity / β-gal expression: 0.5 mg/ml in 7.8 mM Big CHAP
Experimental: as §1

[5] = Solubility and dissolution behaviour; format: physicochemical
bladder epithelium [6] = format: in vivo, rat
Experimental: Nine female buffalo rats (Harlan Sprague Dawley) were anesthetized with isoflurane and received a single intravesical administration of a human recombinant adenovirus encoding the lacZ gene (rAd-βgal). […] The administered material was retained in the bladder for 45 minutes. The bladder were then flushed with PBS, and the animals were permitted to recover from the procedure. Two days after administration, rats were sacrificed, bladders were harvested, fixed, and whole organs were stained with an Xgal (5-Bromo-4-chloro-3-indolyl-β-D-galactoside) solution to evaluate reporter gene transfer. Xgal-stained tissues were then paraffin embedded, sectioned, and counter stained with hematoxylin and eosin.
After a 45 minute incubation, the bladders were flushed with PBS, and animals were permitted to recover from anesthesia.

[7] = tested on: bladder, kidney and liver homogenates; assay: ACNRB transgene expression by RT-PCR after intravesical administration; format: in vivo, mouse
Experimental: After the virus was retained in the bladder for 45 minutes, the animals were permitted to recover and void. […] Following amplification (30 cycles) RT-PCR products were separated on a 10% polyacrylamide gel, stained with ethidium bromide, and photographed. […] Untreated samples and bladder samples without the reverse transcriptase (RT) provided controls for contaminating DNA.
The instilled material was retained in the bladder for approximately 45 minutes, and animals were permitted to recover from the procedure. Mice were sacrificed 1, 2, 3, 4, 5, 6, 7, and 14 days after administration (N=4/time) for analysis. Bladders, livers, and kidneys were harvested and snap frozen in liquid nitrogen for subsequent analysis.
After the virus was retained in the bladder for 45 minutes, the animals were permitted to recover. […] Transgene expression was determined using RT-PCR. Tissues were rinsed in RNAse free water, homogenized, digested in Tri-Reagent (Molecular Research Center), and total cellular RNA extracted. […] RT-PCR was performed in the Perkin Elmer 9600 GeneAmp PCR System. Cycling conditions were 10 min at 65° C., 8 min at 50° C., 5 min at 95° C. 32 cycles of PCR were performed, each cycle consisting of 30 sec at 94° C., 30 sec at 58° C., and 30 sec at 72° C. The 32nd cycle included a 10 min elongation step at 72° C. to ensure full extension of incomplete DNA fragments.

**Q.** What does the source list for Triton X-100 [reference compound]?
**A.** macrophage infiltration into the bladder tissue / cystitis (bladder tissue): slight to mild; gene transfer to the bladder epithelium (Table I) (bladder epithelium [1]): enhanced gene transfer dramatically

**Q.** Which gene transfer activity (bladder [2]) does the source give for `CC(CCC(=O)NCCCN(CCCNC(=O)C(O)C(O)C(OC1OC(CO)C(O)C(O)C1O)C(O)CO)C(=O)CCC(C)C1CCC2C3C(O)CC4CC(O)CCC4(C)C3CC(O)C12C)C1CCC2C3C(O)CC4CC(O)CCC4(C)C3CC(O)C12C` (stereo not drawn) [Syn3] here?
**A.** The gene transfer activity was “++++”.

**Q.** What about the “inflammation / infiltration at lower concentration of Syn3” value (bladder urothelium) of the same molecule?
**A.** Its value is “proportionally lower infiltration”.

**Q.** And the “inflammation / infiltration at lower concentration of Syn3” value (bladder urothelium; listed as I3A)?
**A.** Its value is “less inflammation”.

**Q.** What about the “recruitment of infiltrates to the bladder” value (bladder urothelium; 0.5 mg/ml in 7.8 mM Big CHAP with rAd) of the same molecule?
**A.** Its value is “massive recruitment of infiltrates to the bladder”.

**Q.** What about the infiltration (bladder urothelium; Syn3 administered alone (no virus)) of the same molecule?
**A.** Its infiltration is “a significant amount of infiltration; also recorded: significant induction of infiltrates”.

**Q.** And the “β-Gal expression on reducing the concentration of Syn3 (histology)” value (bladder urothelium; in either detergent)?
**A.** The value was “concomitant reduction in β-Gal expression”.

**Q.** And the “period over which gene transfer activity is retained” value ([3]; 0.25 mg/ml or 0.5 mg/ml in Big CHAP, room temperature)?
**A.** Its value is “at least 30 days”.

**Q.** And the period of stability ([3]; 1 mg/ml in 0.1% Tween-80, longest period tested)?
**A.** The period of stability was “at least 30 days”.

**Q.** And the period of stability ([3]; 100 mg/ml in 10% Tween-80, 4° C.)?
**A.** Its period of stability is “at least one week”.

**Q.** What about the time to solidify ([3]; 100 mg/ml in 10% Tween-80, room temperature) of the same molecule?
**A.** The time to solidify was at most 24 h.

**Q.** And the “stability (in words)” value ([3]; dissoluted into Big CHAP detergent)?
**A.** Its value is “very stable”.

**Q.** What about the gene transfer activity (bladder [4]; 0.25 mg/ml in 3.9 mM Big CHAP) of the same molecule?
**A.** Its gene transfer activity is “Very high levels of gene transfer”.

**Q.** And the gene transfer activity (bladder [4]; 0.25 mg/ml in 3.9 mM Big CHAP, listed as I3A)?
**A.** Its gene transfer activity is “high levels of gene transfer activity”.

**Q.** What about the “gene transfer activity / β-gal expression” value (bladder [4]) of the same molecule?
**A.** Its value is “greatly enhance gene transfer and β-gal expression; also recorded: very high levels of gene transfer activity; also recorded: highest levels of β-galactosidase expression; also recorded: extremely high”.

**Q.** And the “gene transfer activity / β-gal expression” value (bladder [4]; listed as I3A)?
**A.** The value was “High levels of gene transfer”.

**Q.** What about the gene transfer activity (bladder [4]; 0.5 mg/ml in 0.05% Tween-80) of the same molecule?
**A.** Its gene transfer activity is “more regions lacking β-galactosidase expression; also recorded: slightly reduced”.

**Q.** And the gene transfer activity (bladder [4]; 1 mg/ml in 0.1% Tween 80)?
**A.** Its gene transfer activity is “found to enhance gene transfer; also recorded: can enhance gene transfer; also recorded: very high levels of gene transfer; also recorded: consistently high levels of gene transfer; also recorded: effective in enhancing gene transfer; also recorded: Approximately equal levels of gene transfer”.

**Q.** What about the gene transfer activity (bladder [4]; 1 mg/ml in 0.1% Tween 80, listed as I3A) of the same molecule?
**A.** The gene transfer activity was “very high levels of gene transfer; also recorded: High levels of β-galactosidase activity”.

**Q.** And the gene transfer (bladder [4]; 1 mg/ml in 0.4% Tween-80)?
**A.** Its gene transfer is “almost no gene transfer”.

**Q.** What about the “gene transfer, 0.5 mg/ml in 7.8 mM Big CHAP compared with 1 mg/ml in 0.1% Tween-80” value (bladder [4]; rat, in vivo) of the same molecule?
**A.** Its value is “approximately equal levels of gene transfer enhancement; also recorded: comparable”.

**Q.** What about the “dissolution in Tween 80” value ([5]; 1 mg/ml in 0.1% Tween 80) of the same molecule?
**A.** Its value is “clear solution; also recorded: readily solubilized”.

**Q.** And the “behaviour on dissolution in water” value ([5]; 1 mg/ml in water)?
**A.** Its value is “appeared to form vesicles”.

**Q.** What about the “behaviour on dissolution in water” value ([5]; 10 mg/ml in water) of the same molecule?
**A.** Its value is “formed a gel”.

**Q.** What about the “amount of Syn3 that dissolutes” value ([5]; into 15 mM Big CHAP) of the same molecule?
**A.** The value was “Up to 5 mg/ml”.

**Q.** And the “time to completely dissolute” value ([5]; into 10% Tween-80)?
**A.** Its value is “several hours”.

**Q.** Which results are given for `CCO` [ethanol]?
**A.** macrophage infiltration into the bladder tissue / cystitis (bladder tissue): significant cystitis; β-galactosidase expression of the transitional bladder epithelium (histologic evaluation) (bladder epithelium [6]; ethanol added to the adenovirus formulation): increased β-galactosidase expression; β-galactosidase expression in the luminal epithelial surface (bladder epithelium [6]; rAd-βgal 1.7×10^11 PN/mL diluted in 30% (v/v) ethanol, intravesical 45 min, 2 days after administration): greatly enhanced; ACNRB expression in bladder (RT-PCR) ([7]; ACNRB 4×10^10 PN/mL in 22% (v/v) ethanol or 3 mM Big CHAP versus VPBS, 48 hours): enhanced expression; ACNRB expression in bladder (RT-PCR) ([7]; ACNRB in 30% (v/v) ethanol compared to VPBS, 2 days): Increased ACNRB expression
